The results in this text go back to patent US20250312365A1, “METHODS FOR INHIBITION OF SQUAMOUS CARCINOMA CELLS USING CERAMIDE MODULATORS” (The Trustees of Indiana University, priority 2024, published 2025).

One assay deals with ASAH1. Kind of assay: ASAH1 (acid ceramidase) mRNA expression in OECM1 cells. It is filed as cell-based, human. The settings on record: 0.1 or 1 μg/ml of PGDHC. An excerpt: Exemplary ceramidase genes, the expression of which can be measured to determine upregulation, include but are not limited to ASAH1, ACER2, and ACER3. A determination of ceramidase gene expression can be made according to methods available to one of skill in the art. For example, Yamada et al., J Cell Mol Med. 2023 May;27(9):1290-1295 and Kyriakou et al., Int. J. Mol. Sci. 2020, 21(5):1607 describes measuring the mRNA levels of ceramidases by RNA extraction and RT-PCR.
To test this hypothesis, it was first determined whether artificially elevated intracellular concentration of ceramide species affect the expression of acid/ASAH1, neutral/ASAH2, and alkaline1-3/ACER1-3 ceramidases in oral squamous cell carcinoma cells using C6-ceramide. Applicant previously reported that C6-ceramide serves as a positive control for PGDHC-mediated inflammation (Kanzaki et al., Biochim Biophys Acta Mol Cell Biol Lipids. 2017 May;1862(5):452-462) and promotes the intracellular accumulation of ceramide in cancer cells. See, e.g., Zhang et al., Front Plant Sci. 2020 Feb. 26:11:145, Zhai et al., Biochem Biophys Res Commun. 2015 December;468(1-2):274-80, Wilhelm et al., Cancers (Basel). 2021 Jan. 13;13(2):270, and Chapman et al., Biochem Pharmacol. 2010 Aug. 1;80(3):308-15.
Next, the effect of PGDHC on ceramidase gene expression was determined. OECM1 and SCC4 cells were exposed to 0.1 or 1 μg/ml of PGDHC. The mRNA levels of ceramidases were then measured following PGDHC exposure. PGDHC inhibited the expression of ASAH1 and ACER2 mRNAs in OECM1 (FIG. 8). […] See, e.g., Vijayan et al., J Adv Res. 2023 Dec. 21:S2090-1232(23)00403-4, Doan et al., Oncotarget. 2017 Nov. 7;8(68):112662-112674., Lai et al., Sci Rep. 2021 May 27;11(1):11221, Liu et al., Cancer Sci. 2020 July;111(7):2259-2274., and Liu et al., Front Genet. 2023 Mar. 1:14:1148437.
To elucidate the effects of C16:0 and dh-C16:0 on oral squamous cell carcinoma, the ability of exogenous C16:0 and dh-C16:0 to modulate proliferation and ceramidase expression in OECM1 cells was determined. […] In contrast, no effect of C16:0 on ASAH1 and ACER2 mRNA expressions.
We evaluated the effect of a15:0-i15:0 phosphoethanolamine phospholipid (FIG. 1D), isolated from the gut bacteria Akkermansia muciniphila on OSCC cells.

Assay [1] has as its system tongue squamous carcinoma cells (SCC4). The experiment in a line: WST-1 proliferation assay in SCC4 cells. The settings on record: 0.1 μg/ml and 1 μg/ml. Type of assay: cell-based, human. An excerpt: In specific examples, colorimetric assays can be used to assess cellular viability and proliferation of cell cultures, such as MTT, WST-1, and resazurin assays. See, e.g., Präbst et al., Methods Mol Biol. 2017:1601:1-17.
Various cell lines were exposed to PGDHC, including human gingival squamous carcinoma cells (OECM1), tongue squamous carcinoma cells (SCC4, SCC9), and healthy human gingival epithelial control cells (OBA9) in vitro.

The test system of the next assay is OECM1 cells. The experiment in a line: Scratch wound healing migration assay, OECM1. As to conditions: compared to sham control. It is filed as cell-based, human. The text has this: In vitro assays can be used to evaluate cell migration, including scratch-wound assays and wound healing assays, as in Xu et al., Exp Ther Med. 2023 October; 26(4):460. See also Liang et al., Nat Protoc. 2007;2(2):329-33 and Martinetti & Ronzato, Methods Mol Biol. 2020:2109:225-229. Additionally, the genetic components of cell migration and invasion can be evaluated. For example, MMP-2, ADAM-17 and IL-6 are associated with degradation of the basement membranes and extracellular matrix in OECM-1 cells. See, e.g., Yamada et al., J Cell Mol Med. 2023 May; 27(9):1290-1295.
A scratch wound healing assay was performed according to known methods to assess the effects of PGDHC on the migration of human oral squamous cell carcinoma cells. […] The scratch wound healing assay was validated with a transwell migration assay.
A wound healing migration assay was also conducted to determine the effects of S1P alone or in combination with PGDHC on cell migration. See Yamada et al., J Cell Mol Med. 2023 May; 27(9):1290-1295.

Assay [2] deals with healthy oral epithelial cells. The experiment in a line: ASAH1 expression and dihydroceramide accumulation in healthy oral epithelial cells. It is filed as cell-based. As to conditions: preliminary findings. The text has this: Applicant performed in vitro studies to determine the effect of PEDHC and PGDHC on the proliferation of oral cancer cells via downregulation of acid ceramidase, thereby contributing to the accumulation of intracellular ceramides. […] Furthermore, PGDHC diminished metabolites in at least five different cell survival metabolomic pathways in OSCC cells but not in healthy cells. The metabolomic pathways included folate metabolism, arginine and proline metabolism, triacylglycerol biosynthesis de novo, mitochondrial election transport chain, and glycine and serine metabolism. […] In contrast to current approaches for undermining the viability of oral squamous cell carcinoma and treating OSCC, the present disclosure relates in some aspects to methods and compositions for selectively interfering with any of the growth, viability, proliferation, migration, and metastasis of oral squamous cell carcinoma.

Another assay has as its system Vimentin. The experiment in a line: Western blot of Vimentin in OECM1 cells. It is filed as cell-based, human. The settings on record: 24 h of treatment. On the procedure: To determine the effect of PGDHC on cell markers involved in metastasis, the protein levels of p-STAT3, EMT markers, E-cadherin, N-cadherin, and Vimentin in OECM1 cells following in vitro exposure to PGDHC were determined by Western blot assay.

A further assay deals with IL6. Kind of assay: IL6 mRNA expression in OECM1 cells. Type of assay: cell-based, human. The method, then:
(§1) NF-kB, MMP-2, ADAM-17, and IL6 are implicated in the degradation of the expression of genes involved in the cell basement membrane and extracellular matrix of oral squamous cell carcinoma. Accordingly, the expression of NFkB, MMP2, ADAM17, and IL6 in OECM1 cells following exposure to 0.1 μg/ml PGDHC and 1 μg/ml PGDHC was determined.
(§2) Sphingosine-1-phosphate (S1P) sphingolipid plays an essential role in the survival, migration, and degradation of the basement membrane and extracellular matrix of oral squamous cell carcinoma (Yura et al., Cancers (Basel). 2020 August; 12(8): 2062). To determine whether PGDHC can inhibit such properties, the combined effects of PGDHC and S1P on OECM1 gene expression was tested in vitro.

In another assay the test system is MMP2. Kind of assay: MMP2 mRNA expression in OECM1 cells. Type of assay: cell-based, human. The method, then:
as §1, §2

“Also recorded” adds a separate entry of the source.

For the substance phosphoglycerol dihydroceramide [PGDHC], the “expression of ASAH1 mRNA in OECM1” value in the assay on ASAH1 is listed as “inhibits; also recorded: dramatically inhibited”. Moreover, in assay [1], the “proliferation of SCC4 cells” value is “did not have an observable effect”. Further, the “OECM1 migration, scratch wound healing assay” value in the assay with OECM1 cells (1 μg/ml) was “significantly inhibited”. Besides, the “S1P-mediated wound-healing migration of OECM1” value with OECM1 cells (in combination with S1P) is listed as “dramatically inhibited”. Further, the “inhibition of ASAH1 expression and accumulation of dihydroceramide in healthy oral epithelial cells” value in assay [2] was “not observed”. Moreover, in the assay on Vimentin, the “protein level of Vimentin in OECM1 cells” value is on record as “little to no detectable effect”. For the same substance, in the assay on IL6 (1 μg/ml), the “expression of IL6 mRNA in OECM1 cells” value is reported as “significantly inhibited”. In addition, the “expression of IL6 mRNA in OECM1 cells exposed to S1P” value with IL6 (in combination with S1P) was “significantly inhibited”. Moreover, the “expression of MMP2 mRNA in OECM1 cells” value with MMP2 (1 μg/ml) is “significantly inhibited”. Moreover, in the assay with MMP2 (in combination with S1P), the “MMP2 mRNA levels in OECM1 cells exposed to S1P” value was “a significant effect was not observed”.
